Patent publication US20130172308A1, “ANTIMICROBIAL AGENTS” (John Grant COLLINS, priority 2011, published 2013)

Tests used:
P. aeruginosa ATCC 27853 = assay: MIC determination, broth micro-dilution (CAMHB); assay type: cell-based, Pseudomonas aeruginosa; conditions: Table 1; 37° C., 24 h
Protocol: (§1) Four strains of bacteria were chosen for the susceptibility tests: S. aureus ATCC 25923; MRSA (a wild clinical strain from the JCU culture collection); E. coli ATCC 25922 and P. aeruginosa ATCC 27853. The bacteria were grown on Mueller Hinton agar (OXOID, cat. No. CM0337) and suspended in growth medium cation-adjusted Mueller Hinton broth (CAMHB, OXOID, cat. No. CM0405). The MIC of each complex was determined in duplicate by standard micro-dilution methodology (British Society for Antimicrobial Chemotherapy Working Party, J. Antimicrob. Chemother., 1991, 27(suppl. D), 22) using gentamicin as the positive control. The ruthenium complexes were dissolved in CAMHB to a stock solution of […] and two-fold diluted in the broth in 96-well plates in a final volume of […] in each well. The same volume […] of bacterial suspension was added in each well making a concentration range of 0.25 mg ml^−1 to 128 mg ml^−1 for each complex. The plates were incubated at 37° C. for 24 h. The results are summarised in Table 1 below, using the following abbreviations: • Rubpm=ΔΔ-[{Ru(phen)2}2(μ-2,2′-bipyrimidine)]Cl4 • Rudppm=ΔΔ-[{Ru(phen)2}2(μ-4,6-bis(2-pyridyl)pyrimidine)]Cl4 • Rubb7trinuclear=Δ*Δ*-[{Ru*(phen)2}(μ-bb7){Ru(phen)}(μ-bb7){Ru*(phen)2}]Cl6 (only the two terminal metal centres are chiral, the two central metal centres are racemic) • Rubb7tetranuclear=Δ*Δ*-[{Ru*(phen)2}(μ-bb7) {Ru(phen)}(μ-bb7){Ru(phen)}(μ-bb7)-{Ru*(phen)2}]Cl8 (only the two terminal metal centres are chiral, the two central metal centres are racemic)
(§2) Further MIC assays and Minimum Bactericidal Concentration (MBC) assays were conducted against Gram-positive and Gram-negative bacterial strains using symmetric and non-symmetric, inert and labile complexes.

[1] = assay type: physicochemical; conditions: pH 7.4
Protocol: The primary difference between the members of the Rubbn family of complexes is the number of methylene groups in the flexible linking chain. […] Lipophilicity is a significant factor affecting the biological activity of most therapeutic compounds, as it relates to the capacity of the drug to penetrate through the cell membrane. The standard octanol-water partition coefficient (logP) was determined for the Rubbn series (F. Lombardo, B. Faller, M. Shalaeva, I. Tetko and S. Tilton, Methods and Principles in Medicinal Chemistry, 2008, 37, 407) parent model mononuclear species ([Ru(phen)2(Me2bpy)]^2+) and the trinuclear and tetranuclear complexes.
The partition coefficients (logP) were measured using the shake flask technique: each ruthenium complex (at both 0.05 and 0.1 mM) was dissolved in the water phase (0.2 M Na2HPO4—NaH2PO4 buffer, pH=7.4) and an equivalent volume of n-octanol was added.
The two phases were mutually saturated by shaking overnight at ambient temperature and then were allowed to separate on standing. The concentration of the metal complex in each phase was determined spectrophotometrically at l=450 nm.

S. aureus ATCC 25923 = assay: MIC determination, broth micro-dilution (CAMHB); assay type: cell-based, Staphylococcus aureus; conditions: Table 1; 37° C., 24 h
Protocol: as §1, §2

[2] = test system: MRSA (a wild clinical strain from the JCU culture collection); assay: MIC determination, broth micro-dilution (CAMHB); assay type: cell-based, methicillin-resistant S. aureus; conditions: Table 1; 37° C., 24 h
Protocol: as §1, §2

E. coli ATCC 25922 = assay: MIC determination, broth micro-dilution (CAMHB); assay type: cell-based, Escherichia coli; conditions: Table 1; 37° C., 24 h
Protocol: as §1, §2

Row | Compound | MIC P. aeruginosa (P. aeruginosa ATCC 27853) | logP [1] | MIC S. aureus (S. aureus ATCC 25923) | MIC MRSA [2] | MIC E. coli (E. coli ATCC 25922)
1 | Δ-[Ru(phen)2(Me2bipy)](PF6)2 [[Ru(phen)2(Me2bpy)]^2+, reference compound] | >128 µg/mL | −2.9 | 128 µg/mL | >128 µg/mL | >128 µg/mL
2 | Δ*Δ*-[{Ru*(phen)2}(μ-bb7) {Ru(phen)}(μ-bb7){Ru(phen)}(μ-bb7)-{Ru*(phen)2}]Cl8 [Rubb7tetranuclear] | 8 µg/mL | −1.9 | 8 µg/mL | 8 µg/mL | 32 µg/mL
3 | [{Ru(phen)2}2(μ-bb5)](PF6)4 [Rubb5] | – | −3.5 | – | – | –
4 | Cc1ccnc(-c2cc(CCCCCCCCCCCCCCCCc3ccnc(-c4cc(C)ccn4)c3)ccn2)c1.[Cl-].[Cl-].[Cl-].[Cl-].[Ru+2].[Ru+2].c1cnc2c(c1)ccc1cccnc12.c1cnc2c(c1)ccc1cccnc12.c1cnc2c(c1)ccc1cccnc12.c1cnc2c(c1)ccc1cccnc12 [ΛΛ-Rubb16, [{Ru(phen)2}2(μ-bb16)]Cl4] | 8 µg/mL | – | 1 µg/mL | 1 µg/mL | 4 µg/mL
5 | Δ-[Ru(phen)2(bb16)]Cl2 [Rubb16mono] | 64 µg/mL | +2.1 | 16 µg/mL | 16 µg/mL | 64 µg/mL
6 | Cc1ccnc(-c2cc(CCCCCCCCCCc3ccnc(-c4cc(C)ccn4)c3)ccn2)c1.F[P-](F)(F)(F)(F)F.F[P-](F)(F)(F)(F)F.F[P-](F)(F)(F)(F)F.F[P-](F)(F)(F)(F)F.[Ru+2].[Ru+2].c1cnc2c(c1)ccc1cccnc12.c1cnc2c(c1)ccc1cccnc12.c1cnc2c(c1)ccc1cccnc12.c1cnc2c(c1)ccc1cccnc12 [Rubb10, [{Ru(phen)2}2(μ-bb10)](PF6)4] | – | −3.3 | – | – | –
7 | Cc1cc[n+]2c(c1)-c1cc(CCc3cc[n+]4c(c3)-c3cc(C)cc[n+]3[Ru-4]435([n+]4cccc6ccc7ccc[n+]3c7c64)[n+]3cccc4ccc6ccc[n+]5c6c43)cc[n+]1[Ru-4]213([n+]2cccc4ccc5ccc[n+]1c5c42)[n+]1cccc2ccc4ccc[n+]3c4c21 [ΔΔ-Rubb2, [{Ru(phen)2}2(μ-bb2)]^4+] | – | – | – | – | >128 µg/mL
8 | Cc1cc[n+]2c(c1)-c1cc(CCCCCCCc3cc[n+]4c(c3)-c3cc(C)cc[n+]3[Ru-4]435([n+]4cccc6ccc7ccc[n+]3c7c64)[n+]3cccc4ccc6ccc[n+]5c6c43)cc[n+]1[Ru-4]213([n+]2cccc4ccc5ccc[n+]1c5c42)[n+]1cccc2ccc4ccc[n+]3c4c21.F[P-](F)(F)(F)(F)F.F[P-](F)(F)(F)(F)F.F[P-](F)(F)(F)(F)F.F[P-](F)(F)(F)(F)F [ΛΛ-Rubb7, [{Ru(phen)2}2(μ-bb7)](PF6)4] | 64 µg/mL | – | 64 µg/mL | 32 µg/mL | 16 µg/mL
9 | ΔΔ-[{Ru(phen)2}2(μ-bb14)](PF6)4 [ΔΔ-Rubb14] | 8 µg/mL | – | 1 µg/mL | 1 µg/mL | 4 µg/mL
10 | [{Ru(phen)2}2(μ-bb12)] [ΛΛ-Rubb12] | 16 µg/mL | – | 2 µg/mL | 2 µg/mL | 2 µg/mL
11 | [Ru+2].c1cnc2c(c1)ccc1cccnc12.c1cnc2c(c1)ccc1cccnc12.c1cnc2c(c1)ccc1cccnc12 [[Ru(phen)3]^2+, reference compound] | >128 µg/mL | – | >128 µg/mL | >128 µg/mL | >128 µg/mL
12 | Cc1ccnc(-c2cc(CCCCCCCCCCc3ccnc(-c4cc(C)ccn4)c3)ccn2)c1.F[P-](F)(F)(F)(F)F.F[P-](F)(F)(F)(F)F.F[P-](F)(F)(F)(F)F.F[P-](F)(F)(F)(F)F.[Ru+2].[Ru+2].c1cnc2c(c1)ccc1cccnc12.c1cnc2c(c1)ccc1cccnc12.c1cnc2c(c1)ccc1cccnc12.c1cnc2c(c1)ccc1cccnc12 [ΛΛ-Rubb10, [{Ru(phen)2}2(μ-bb10)](PF6)4] | 32 µg/mL | – | 8 µg/mL | 8 µg/mL | 4 µg/mL
13 | Cc1cnc2c(ccc3c(C)c(C)cnc32)c1C.Cc1cnc2c(ccc3c(C)c(C)cnc32)c1C.Cc1cnc2c(ccc3c(C)c(C)cnc32)c1C.[Ru+2] [[Ru(Me4phen)3]^2+, reference compound] | 32 µg/mL | – | 0.5 µg/mL | 4 µg/mL | 8 µg/mL
14 | Δ*Δ*-[{Ru*(phen)2}(μ-bb7){Ru(phen)}(μ-bb7){Ru*(phen)2}]Cl6 [Rubb7trinuclear] | 2 µg/mL | −1.2 | 4 µg/mL | 4 µg/mL | 16 µg/mL
15 | [{Ru(phen)2}2(μ-bb5)](PF6)4 [ΔΔ-Rubb5] | >128 µg/mL | – | 128 µg/mL | 128 µg/mL | 128 µg/mL
16 | ΔΔ-[{Ru(phen)2}2(μ-bbN12)]Cl4 [ΔΔ-RubbN12] | >128 µg/mL | – | 128 µg/mL | 128 µg/mL | 128 µg/mL
17 | Cc1cc[n+]2c(c1)-c1cc(CCCCCCCCCCCCCCc3cc[n+]4c(c3)-c3cc(C)cc[n+]3[Ru-4]435([n+]4cccc6ccc7ccc[n+]3c7c64)[n+]3cccc4ccc6ccc[n+]5c6c43)cc[n+]1[Ru-4]213([n+]2cccc4ccc5ccc[n+]1c5c42)[n+]1cccc2ccc4ccc[n+]3c4c21.[Cl-].[Cl-].[Cl-].[Cl-] [ΛΛ-Rubb14, [{Ru(phen)2}2(μ-bb14)]Cl4] | 8 µg/mL | – | 1 µg/mL | 1 µg/mL | 2 µg/mL
18 | Cc1cc[n+]2c(c1)-c1cc(CCCCCCCCCCCCCCc3cc[n+]4c(c3)-c3cc(C)cc[n+]3[Ru-4]435([n+]4cccc6ccc7ccc[n+]3c7c64)[n+]3cccc4ccc6ccc[n+]5c6c43)cc[n+]1[Ru-4]213([n+]2cccc4ccc5ccc[n+]1c5c42)[n+]1cccc2ccc4ccc[n+]3c4c21.[Cl-].[Cl-].[Cl-].[Cl-] [Rubb14, [{Ru(phen)2}2(μ-bb14)]Cl4] | – | −2.3 | – | – | –
19 | Cc1cc[n+]2c(c1)-c1cc(CCc3cc[n+]4c(c3)-c3cc(C)cc[n+]3[Ru-4]435([n+]4cccc6ccc7ccc[n+]3c7c64)[n+]3cccc4ccc6ccc[n+]5c6c43)cc[n+]1[Ru-4]213([n+]2cccc4ccc5ccc[n+]1c5c42)[n+]1cccc2ccc4ccc[n+]3c4c21 [ΛΛ-Rubb2, [{Ru(phen)2}2(μ-bb2)]^4+] | >128 µg/mL | – | >128 µg/mL | >128 µg/mL | –
20 | [{Ru(phen)2}2(μ-bb5)](PF6)4 [ΛΛ-Rubb5] | 128 µg/mL | – | 128 µg/mL | 128 µg/mL | 64 µg/mL
21 | Cc1cc[n+]2c(c1)-c1cc(CCc3cc[n+]4c(c3)-c3cc(C)cc[n+]3[Ru-4]435([n+]4cccc6ccc7ccc[n+]3c7c64)[n+]3cccc4ccc6ccc[n+]5c6c43)cc[n+]1[Ru-4]213([n+]2cccc4ccc5ccc[n+]1c5c42)[n+]1cccc2ccc4ccc[n+]3c4c21 [Rubb2, [{Ru(phen)2}2(μ-bb2)]^4+] | – | −3.6 | – | – | –
22 | ΔΔ-[{Ru(phen)2}2(μ-bbO7)](PF6)4 [ΔΔ-RubbO7] | >128 µg/mL | – | 128 µg/mL | 128 µg/mL | 128 µg/mL
23 | [Ru(Me2phen)3]^2+ [reference compound] | >128 µg/mL | – | 8 µg/mL | 128 µg/mL | 128 µg/mL
24 | ΔΔ-[{Ru(phen)2}2(μ-bbN7)] [ΔΔ-RubbN7] | >128 µg/mL | – | >128 µg/mL | >128 µg/mL | >128 µg/mL
